Test results: patent US20230398130A1, “METHODS AND COMPOSITIONS FOR DIFFERENTIATING STEM CELLS” (Massachusetts Institute of Technology, priority 2020, published 2023)

Assays:
[1] = system: ISC-enriched organoids; assay: Primary screen, 384-well 2.5-D organoid differentiation (ENR+CD, 6 days): basal lysozyme secretion (LYZ.NS); type: cell-based, murine; details: for Dose.FC.LYZ.NS: FC vs plate median; for SSMD.LYZ.NS: strictly standardized mean difference
Description: (§1) High-throughput screening.

[2] = system: ISC-enriched organoids; assay: Primary screen, 384-well 2.5-D organoid differentiation (ENR+CD, 6 days): carbachol-induced lysozyme secretion (LYZ.S); type: cell-based, murine; details: primary screen; for Dose.FC.LYZ.S: FC vs plate median; for Z.LYZ.S: standard z score; for SSMD.LYZ.S: strictly standardized mean difference
Description: as §1

[3] = system: ISC-enriched organoids; assay: Primary screen, 384-well 2.5-D organoid differentiation (ENR+CD, 6 days, Target Selective Inhibitor Library, vs whole-plate median): ATP (CellTiter-Glo 3D, CTG); details: for Dose.FC.CTG: FC vs plate median; for SSMD.CTG: strictly standardized mean difference
[4] = Dose 0.08 uM, standard z score of FC
[5] = Dose 0.40 uM, standard z score of FC
[6] = Dose 2.00 uM, standard z score of FC
[7] = Dose 10.00 uM, standard z score of FC
[8] = primary screen, 1st of the 4 dose lines of the treatment (dose not given)
[9] = primary screen, 2nd of the 4 dose lines of the treatment (dose not given)
[10] = primary screen, 3rd of the 4 dose lines of the treatment (dose not given)
[11] = primary screen, 4th of the 4 dose lines of the treatment (dose not given)
[12] = 1st of the 4 dose lines of the treatment (dose not given)
[13] = 2nd of the 4 dose lines of the treatment (dose not given)
[14] = 3rd of the 4 dose lines of the treatment (dose not given)
[15] = 4th of the 4 dose lines of the treatment (dose not given)
[16] = Dose 0.08 uM, primary screen, standard z score
[17] = Dose 0.40 uM, primary screen, standard z score
[18] = Dose 2.00 uM, primary screen, standard z score
[19] = Dose 10.00 uM, primary screen, standard z score

CCCC(=O)Nc1cccc(NC(=O)c2ccccc2Br)c1 [ML161]
Dose.FC.LYZ.NS ([1]; Dose 0.08 uM, primary screen): 0.018 log 2 fold change
Z.LYZ.NS [1, 4]: 0.158
Dose.FC.LYZ.NS ([1]; Dose 0.40 uM, primary screen): −0.027 log 2 fold change
Z.LYZ.NS [1, 5]: −0.237
Dose.FC.LYZ.NS ([1]; Dose 2.00 uM, primary screen): 0.037 log 2 fold change
Z.LYZ.NS [1, 6]: 0.323
Dose.FC.LYZ.NS ([1]; Dose 10.00 uM, primary screen): −0.057 log 2 fold change
Z.LYZ.NS [1, 7]: −0.494
SSMD.LYZ.NS [1, 8]: 0.117
SSMD.LYZ.NS [1, 9]: −0.239
SSMD.LYZ.NS [1, 10]: 0.354
SSMD.LYZ.NS [1, 11]: −0.421
Dose.FC.LYZ.S ([2]; Dose 0.08 uM): 0.017 log 2 fold change
Dose.FC.LYZ.S ([2]; Dose 0.40 uM): −0.027 log 2 fold change
Dose.FC.LYZ.S ([2]; Dose 2.00 uM): 0.024 log 2 fold change
Dose.FC.LYZ.S ([2]; Dose 10.00 uM): −0.066 log 2 fold change
Z.LYZ.S [2, 12]: 0.113
Z.LYZ.S [2, 13]: −0.173
Z.LYZ.S [2, 14]: 0.158
Z.LYZ.S [2, 15]: −0.429
SSMD.LYZ.S [2, 12]: 0.096
SSMD.LYZ.S [2, 13]: −0.148
SSMD.LYZ.S [2, 14]: 0.152
SSMD.LYZ.S [2, 15]: −0.282
Dose.FC.CTG ([3]; Dose 0.08 uM, primary screen): 0.086 log 2 fold change
Z.CTG [3, 4]: 0.205
Dose.FC.CTG ([3]; Dose 0.40 uM, primary screen): 0.028 log 2 fold change
Z.CTG [3, 5]: 0.067
Dose.FC.CTG ([3]; Dose 2.00 uM, primary screen): 0.066 log 2 fold change
Z.CTG [3, 6]: 0.157
Dose.FC.CTG ([3]; Dose 10.00 uM, primary screen): −0.035 log 2 fold change
Z.CTG [3, 7]: −0.084
SSMD.CTG [3, 8]: 0.278
SSMD.CTG [3, 9]: 0.087
SSMD.CTG [3, 10]: 0.229
SSMD.CTG [3, 11]: −0.107

O=C(Nc1cc(C(F)(F)F)cc(C(F)(F)F)c1)c1cc(Cl)ccc1O [IMD 0354]
Dose.FC.LYZ.NS ([1]; Dose 0.08 uM, primary screen): 0.004 log 2 fold change
Z.LYZ.NS [1, 16]: 0.035
Dose.FC.LYZ.NS ([1]; Dose 0.40 uM, primary screen): 0.101 log 2 fold change
Z.LYZ.NS [1, 17]: 0.880
Dose.FC.LYZ.NS ([1]; Dose 2.00 uM, primary screen): 0.097 log 2 fold change
Z.LYZ.NS [1, 18]: 0.847
Dose.FC.LYZ.NS ([1]; Dose 10.00 uM, primary screen): −0.089 log 2 fold change
Z.LYZ.NS [1, 19]: −0.777
SSMD.LYZ.NS [1, 8]: 0.021
SSMD.LYZ.NS [1, 9]: 0.439
SSMD.LYZ.NS [1, 10]: 0.612
SSMD.LYZ.NS [1, 11]: −0.729
Dose.FC.LYZ.S ([2]; Dose 0.08 uM): −0.047 log 2 fold change
Dose.FC.LYZ.S ([2]; Dose 0.40 uM): 0.043 log 2 fold change
Dose.FC.LYZ.S ([2]; Dose 2.00 uM): 0.083 log 2 fold change
Dose.FC.LYZ.S ([2]; Dose 10.00 uM): −0.128 log 2 fold change
Z.LYZ.S [2, 12]: −0.303
Z.LYZ.S [2, 13]: 0.281
Z.LYZ.S [2, 14]: 0.534
Z.LYZ.S [2, 15]: −0.826
SSMD.LYZ.S [2, 12]: −0.335
SSMD.LYZ.S [2, 13]: 0.203
SSMD.LYZ.S [2, 14]: 0.537
SSMD.LYZ.S [2, 15]: −0.736
Dose.FC.CTG ([3]; Dose 0.08 uM, primary screen): −0.007 log 2 fold change
Z.CTG [3, 16]: −0.017
Dose.FC.CTG ([3]; Dose 0.40 uM, primary screen): 0.117 log 2 fold change
Z.CTG [3, 17]: 0.280
Dose.FC.CTG ([3]; Dose 2.00 uM, primary screen): 0.076 log 2 fold change
Z.CTG [3, 18]: 0.181
Dose.FC.CTG ([3]; Dose 10.00 uM, primary screen): −0.480 log 2 fold change
Z.CTG [3, 19]: −1.146
SSMD.CTG [3, 8]: −0.019
SSMD.CTG [3, 9]: 0.258
SSMD.CTG [3, 10]: 0.274
SSMD.CTG [3, 11]: −0.748

N#Cc1ccc(C(c2ccc(C#N)cc2)n2cncn2)cc1 [Letrozole]
SSMD.LYZ.NS [1, 8]: 0.554
SSMD.LYZ.NS [1, 9]: 1.104
SSMD.LYZ.NS [1, 10]: 0.063
SSMD.LYZ.NS [1, 11]: −0.042
Z.LYZ.S [2, 12]: 0.258
Z.LYZ.S [2, 13]: 0.970
Z.LYZ.S [2, 14]: 0.038
Z.LYZ.S [2, 15]: 0.040
SSMD.LYZ.S [2, 12]: 0.212
SSMD.LYZ.S [2, 13]: 0.764
SSMD.LYZ.S [2, 14]: 0.041
SSMD.LYZ.S [2, 15]: 0.028
Z.CTG [3, 16]: −0.031
Z.CTG [3, 17]: 0.241
Z.CTG [3, 18]: 0.236
Z.CTG [3, 19]: 0.408
SSMD.CTG [3, 8]: −0.043
SSMD.CTG [3, 9]: 0.336
SSMD.CTG [3, 10]: 0.288
SSMD.CTG [3, 11]: 0.606
